The data set is described as follows: Lung-tissue pharmacokinetics of PG–OJ components in tumor-bearing mice (UPLC–MS/MS). In kind it is in vivo, BALB/c nude male mice. As to conditions: for Cmax: read-out: Cmax; for MRT last: read-out: MRT(0–t) (converted). The source says: This study employed Ultra-Performance Liquid Chromatography–Mass Spectrometry (UPLC–MS/MS) to examine the pharmacokinetic properties of 20 bioactive components in a cell-derived xenograft (CDX) model following oral administration of a 10.2 g/kg PG–OJ extract.
Healthy BALB/c nude male mice (weight: 18–21 g) were purchased from Beijing Huafukang Biotechnology Co., Ltd. (Beijing, China, License Number: SCXK (Jing) 2021-0006). After 3 days of acclimatization, the mice were randomly divided into the control group (CG), model group (MG), and the combined-administration group of P. ginseng and O. japonicus (HM1-HM13) ([…], four-fold clinical-equivalent doses). Subsequently, except for the CG, 0.2 mL (approximately 2 × 10^7 cells) of A549 cell suspension was aspirated with a 1 mL syringe and injected into the right axillary fossa of the model group and drug-administration-group mice. The control-group mice were injected with an equal volume of PBS at the same location. The tumor diameter was measured daily using a caliper. The model was successful when the tumor diameter > 3 mm. The combined-administration group of P. ginseng and O. japonicus was given the corresponding drug orally, once a day, with 0.2 mL/mouse each time. The control group and the model group mice were given the same volume of distilled water, continuously orally for 21 days. During this period, the body weight and tumor volume of the mice were recorded. At the end of the last administration, the mice were […] 0.083, 0.167, 0.25, 0.5, 0.75, 1, 2, 3, 4, 6, 8, 12, 24 h later. After injecting 0.1% pentobarbital sodium, blood was collected from the eye-socket vein, the mice were decapitated, and the tumor and lung tissues were carefully removed.
After homogenizing 50 mg of right-lung-tissue sample, 2 mL of acetonitrile was added to precipitate proteins. The mixture was oscillated for 2 min and then centrifuged for 10 min (12,000 rpm, 4 °C). The supernatant from the new centrifuge tube was collected and dried with nitrogen at room temperature. Finally, the supernatant was redissolved in 50 μL of acetonitrile solution containing 0.1% formic acid. After oscillating for 1 min, another centrifugation step was performed, and the resulting supernatant was used for analysis.
Samples were analyzed on the Vanquish UPLC System (Thermo, Waltham, MA, USA). The Agilent C18 column (4.6 × 150 mm, 4 μm, PN:693970-902T) was selected. The mobile phase was composed of 0.1% formic acid aqueous solution (A) and 0.1% formic acid acetonitrile solution (B). The procedure of gradient elution was as follows: 0–10 min, 95–75% A; 10–25 min, 75–45% A; 25–40 min, 45–30% A; 40–50 min, 30–5% A; 55–55.1 min, 5–95% A; 55.1–60 min, 95% A. The column temperature was set to 30 °C with the flow rate of 0.3 mL/min and the injection volume of 3.0 μL. The mass-spectrometry detection with negative-ion mode was carried out using an Orbitrap Exploris 120 Mass Spectrometer (Thermo, Waltham, MA, USA) and Electrospray ionization (ESI). The sheath-gas-flow rate was […] and the auxiliary-gas-flow rate was […]. The capillary temperature was 325 °C, and the resolution was 120,000 in full scan mode with the mass scan range of 80~1500 m/z. The secondary cracking was performed with HCD at a collision voltage of 30 eV, and unnecessary MS/MS information was removed using the dynamic exclusion method.

The mark [1] stands for this setting: lung tissue, A549 tumor-bearing mice, intragastric PG–OJ extract 10.2 g/kg (6.8 g/kg elsewhere in the source), mean ± SD, n = 6.
Where [2] appears, read: lung tissue, oral PG–OJ extract, in words.
[3] abbreviates: male, BALB/c nude, mouse, po, lung tissue, A549 tumor-bearing mice, intragastric PG–OJ extract 10.2 g/kg (6.8 g/kg elsewhere in the source), mean ± SD, n = 6.
The mark [4] stands for this setting: male, BALB/c nude, mouse, po, lung tissue, A549 tumor-bearing mice, intragastric PG–OJ extract 10.2 g/kg (6.8 g/kg elsewhere in the source), mean ± SD, n = 6, read-out: T1/2.
[5] abbreviates: male, BALB/c nude, mouse, lung tissue, po, 10.2 g/kg, lung tissue, A549 tumor-bearing mice, intragastric PG–OJ extract 10.2 g/kg (6.8 g/kg elsewhere in the source), mean ± SD, n = 6, read-out: Tmax (converted).
Where [6] appears, read: male, BALB/c nude, mouse, lung tissue, po, 10.2 g/kg, lung tissue, oral PG–OJ extract, read-out: time to reach peak concentration.
The mark [7] stands for this setting: male, BALB/c nude, mouse, in vivo, po.
[8] abbreviates: male, BALB/c nude, mouse, in vivo, po, Tmax.

Data on 12 compounds can be found in article PMC10819458, “Using Pharmacokinetic–Pharmacodynamic Modeling to Study the Main Active Substances of the Anticancer Effect in Mice from Panax ginseng–Ophiopogon japonicus” (Molecules, 2024).

Like-named read-outs stand apart in the source and are kept apart here.

Regarding 24(R)-pseudoginsenoside F11, where the note is “mouse, in vivo, po”, the T1/2 amounted to 3.786 ± 0.2045 h, the Tmax was 0.25 ± 0 h and the “time to reach maximum concentration (Cmax) after administration” value (from here on “time to reach maximum concentration”) is on record as at most 15 min.
As to `CC(C)=CCC[C@](C)(O[C@@H]1O[C@H](CO)[C@@H](O)[C@H](O)[C@H]1O)[C@H]1CC[C@]2(C)[C@@H]1[C@H](O)C[C@@H]1[C@@]3(C)CC[C@H](O[C@@H]4O[C@H](CO)[C@@H](O)[C@H](O)[C@H]4O[C@@H]4O[C@H](CO)[C@@H](O)[C@H](O)[C@H]4O)C(C)(C)[C@@H]3CC[C@]12C` [Ginsenoside Rd], under setting [1], the “AUC(0–t)” value is 46,163.94 ± 1033.00 ng/g·min and the “AUC(0–∞)” value was 56,296.57 ± 6663.99 ng/g·min. Also, the “AUC(0–∞) compared with other components” value under setting [2] was “significantly higher than those of other components”. Also, under setting [3], the Cmax stood at 83 ± 2.11 ng/g and the MRT last is 11.1 h. The half-life under setting [4] stood at 16.2 ± 3.68 h.
`CC(C)=CCC[C@](C)(O[C@@H]1O[C@H](CO[C@@H]2O[C@H](CO)[C@@H](O)[C@H](O)[C@H]2O)[C@@H](O)[C@H](O)[C@H]1O)[C@H]1CC[C@]2(C)[C@@H]1[C@H](O)C[C@@H]1[C@@]3(C)CC[C@H](O[C@@H]4O[C@H](CO)[C@@H](O)[C@H](O)[C@H]4O[C@@H]4O[C@H](CO)[C@@H](O)[C@H](O)[C@H]4O)C(C)(C)[C@@H]3CC[C@]12C` [Ginsenoside Rb1]: under setting [1], the “AUC(0–t)” value is reported as 227,245.91 ± 5460.47 ng/g·min and the “AUC(0–∞)” value is listed as 283,948.70 ± 17,261.40 ng/g·min. Also, under setting [2], the “AUC(0–∞) compared with other components” value was “significantly higher than those of other components”. For the same compound, the Tmax under setting [5] is 12 h. Besides, under setting [6], the Tmax was 12 h. In addition, under setting [3], the maximum concentration (Cmax) was determined as 441 ± 15.7 ng/g and the MRT last is 11.5 h. In addition, the half-life under setting [4] is 32.9 ± 3.15 h.
For the compound `CC(C)=CCC[C@](C)(O[C@@H]1O[C@H](CO[C@@H]2O[C@@H](CO)[C@H](O)[C@H]2O)[C@@H](O)[C@H](O)[C@H]1O)[C@H]1CC[C@]2(C)[C@@H]1[C@H](O)C[C@@H]1[C@@]3(C)CC[C@H](O[C@@H]4O[C@H](CO)[C@@H](O)[C@H](O)[C@H]4O[C@@H]4O[C@H](CO)[C@@H](O)[C@H](O)[C@H]4O)C(C)(C)[C@@H]3CC[C@]12C` [Ginsenoside Rc], under setting [1], the “AUC(0–t)” value is 23,180.66 ± 703.80 ng/g·min and the “AUC(0–∞)” value was 25,129.88 ± 1611.92 ng/g·min. The Tmax under setting [5] was 12 h. Also, under setting [6], the Tmax stood at 12 h. Under setting [3], the maximum concentration (Cmax) was 43 ± 2.11 ng/g and the MRT last is 11.6 h. Further, the half-life under setting [4] turned out to be 7.41 ± 1.68 h.
For the compound `CC(C)(O)[C@H]1CC[C@@](C)([C@H]2CC[C@]3(C)[C@@H]2[C@H](O)C[C@@H]2[C@@]4(C)CC[C@H](O)C(C)(C)[C@@H]4[C@@H](O[C@@H]4O[C@H](CO)[C@@H](O)[C@H](O)[C@H]4O)C[C@]23C)O1` [Pseudoginsenoside RT5], under “mouse, in vivo, po”, the T1/2 was 10.572 ± 2.3632 h, the Tmax was 0.25 ± 0 h, the half-life worked out at 10.6 h and the “time to reach maximum concentration” value is at most 15 min.
Turning to `CC(C)=CCC[C@](C)(O[C@@H]1O[C@H](CO)[C@@H](O)[C@H](O)[C@H]1O)[C@H]1CC[C@]2(C)[C@@H]1[C@H](O)C[C@@H]1[C@@]3(C)CC[C@H](O)C(C)(C)[C@@H]3[C@@H](O[C@@H]3O[C@H](CO)[C@@H](O)[C@H](O)[C@H]3O)C[C@]12C` [Ginsenoside Rg1], under setting [1], the “AUC(0–t)” value was 2295.03 ± 213.32 ng·min/g and the “AUC(0–∞)” value is 2345.90 ± 212.68 ng·min/g. The “time to reach maximum concentration” value (lung tissue, oral PG–OJ extract) is at most 15 min. Also, under setting [5], the Tmax was 0.25 h. Also, under setting [3], the Cmax is 50.2 ± 6.67 ng/g and the MRT last was 2.26 h. For the same compound, under setting [4], the half-life amounted to 1.64 ± 0.0457 h.
Under setting [7], `CC(C)=CCC[C@](C)(O[C@@H]1O[C@H](CO)[C@@H](O)[C@H](O)[C@H]1O)[C@H]1CC[C@]2(C)[C@@H]1[C@H](O)C[C@@H]1[C@@]3(C)CC[C@H](O[C@@H]4O[C@H](CO)[C@@H](O)[C@H](O)[C@H]4O)C(C)(C)[C@@H]3CC[C@]12C` [Ginsenoside F2] gave a half-life of 5.83 ± 0.269 h. The Tmax under setting [8] is 1 h. Besides, the “AUC(0–∞) compared with other components” value (mouse, in vivo, po) is “significantly higher than those of other components”.
The compound `CC(C)=CCC[C@](C)(O)[C@H]1CC[C@]2(C)[C@@H]1[C@H](O)C[C@@H]1[C@@]3(C)CC[C@H](O)C(C)(C)[C@@H]3[C@@H](O[C@@H]3O[C@H](CO)[C@@H](O)[C@H](O)[C@H]3O[C@@H]3O[C@@H](C)[C@H](O)[C@@H](O)[C@H]3O)C[C@]12C` [Ginsenoside Rg2] came in with a half-life under setting [7] of 3.58 ± 0.103 h. The Tmax under setting [8] was 0.25 h. Where the note is “mouse, in vivo, po”, the “AUC(0–∞) compared with other components” value was “significantly higher than those of other components” and the “time to reach maximum concentration” value is at most 15 min.
As for `CC(C)=CCC[C@](C)(O[C@@H]1O[C@H](CO)[C@@H](O)[C@H](O)[C@H]1O)[C@H]1CC[C@]2(C)[C@@H]1[C@H](O)C[C@@H]1[C@@]3(C)CC[C@H](O)C(C)(C)[C@@H]3[C@@H](O[C@@H]3O[C@H](CO)[C@@H](O)[C@H](O)[C@H]3O[C@@H]3OC[C@@H](O)[C@H](O)[C@H]3O)C[C@]12C` [Notoginsenoside R1], where the note is “mouse, in vivo, po”, the T1/2 stood at 1.24 ± 0.0245 h, the Tmax came out at 0.125 ± 0.059 h, the “exposure level in lung tissue” value is “extremely low” and the “time to reach maximum concentration” value was at most 15 min.
Turning to `COc1ccc(C[C@@H]2COc3c(C)c(O)c(C)c(O)c3C2=O)cc1` [Methylophiopogonanone B], where the note is “mouse, in vivo, po”, the T1/2 is 6.5088 ± 1.6737 h and the Tmax was 2.5 ± 0 h.
In the case of `CC(C)=CCC[C@](C)(O[C@@H]1O[C@H](CO[C@@H]2OC[C@@H](O)[C@H](O)[C@H]2O)[C@@H](O)[C@H](O)[C@H]1O)[C@H]1CC[C@]2(C)[C@@H]1[C@H](O)C[C@@H]1[C@@]3(C)CC[C@H](O[C@@H]4O[C@H](CO)[C@@H](O)[C@H](O)[C@H]4O[C@@H]4O[C@H](CO)[C@@H](O)[C@H](O)[C@H]4O)C(C)(C)[C@@H]3CC[C@]12C` [Ginsenoside Rb3], under setting [1], the “AUC(0–t)” value was determined as 4049.29 ± 622.84 ng·min/g and the “AUC(0–∞)” value is on record as 16,689.44 ± 2585.97 ng/g·min. For the same compound, under setting [3], the Cmax amounted to 5.92 ± 0.45 ng/g and the MRT last is 13.8 h. Moreover, the half-life under setting [4] turned out to be 66.6 ± 8.6 h.
Regarding `Cc1c(O)c(C)c2c(c1O)C(=O)[C@H](Cc1ccc3c(c1)OCO3)CO2` [Methylophiopogonanone A], under “mouse, in vivo, po”, the T1/2 amounted to 20.3208 ± 6.0457 h and the Tmax came out at 2.5 ± 0 h.
